BindingDB's records for patent US20250304537 (Repare Therapeutics, 2025)

What follows are molecules tested against T1, Membrane-associated tyrosine- and threonine-specific cdc2-inhibitory kinase (Homo sapiens, UniProt Q99640) (assay: Enzymatic Assay).
T1 sequence (Q99640 whole entry): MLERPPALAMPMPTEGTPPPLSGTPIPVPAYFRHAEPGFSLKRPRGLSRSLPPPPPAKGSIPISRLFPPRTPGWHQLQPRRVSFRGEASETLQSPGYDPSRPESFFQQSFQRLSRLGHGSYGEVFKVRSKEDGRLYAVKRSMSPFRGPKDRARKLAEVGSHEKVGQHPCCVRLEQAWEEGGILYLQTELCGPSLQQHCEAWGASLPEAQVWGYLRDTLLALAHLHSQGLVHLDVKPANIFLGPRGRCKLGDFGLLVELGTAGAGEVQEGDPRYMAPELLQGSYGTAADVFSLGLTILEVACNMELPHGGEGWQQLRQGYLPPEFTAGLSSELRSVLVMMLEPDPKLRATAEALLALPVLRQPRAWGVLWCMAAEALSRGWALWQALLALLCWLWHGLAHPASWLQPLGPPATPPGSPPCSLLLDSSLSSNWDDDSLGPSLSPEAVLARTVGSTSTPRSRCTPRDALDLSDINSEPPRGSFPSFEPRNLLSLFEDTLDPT
Description: Detection of Myt1 kinase activity utilized a recombinant human Myt1 kinase assay measuring the hydrolysis of ATP using a commercially available ADP-Glo Assay (ADP-Glo™ Kinase Assay from Promega, 10 000 assays, #V9102). Briefly, 5 μL recombinant human Myt1 (full length PKMYT1 recombinant human protein expressed in insect cells from Thermo Fisher #A33387; ˜80% purity) was prepared in reaction buffer (70 mM HEPES, 3 mM MgCl2, 3 mM MnCl2, 50 μg/ml PEG 20000, 3 μM Na-orthovanadate, 1.2 mM DTT) and added to 384 well white polystyrene, flat bottom well, non-treated, microplate (Corning #3572). After this, 5 μL of compounds (diluted in reaction buffer to 0.5% DMSO) was added to the microplate and the plate was spun briefly and incubated at 22° C. for 15 minutes. Ultra-Pure Adenosine Triphosphate (ATP) solution (ADP-Glo kit from Promega) was diluted in reaction buffer and 5 μL was added to the microplate, spun down briefly and incubated for 60 minutes at 30° C. The final Myt1 enzyme concentration was 18 nM and the final ATP concentration was 10 μM. After the 60-minute incubation, 15 μL of ADP-Glo reagent was added and the plate was spun briefly and sealed and incubated in the dark for 40 minutes at 22° C. Following this, 30 μL of kinase detection reagent was added per well and the plate was spun briefly, sealed and incubated for 45-60 minutes at 22° C. in the dark. Luminescence was read using the Envision (250 ms integration). The IC50 and the % max inhibition were calculated for each inhibitor compound tested.

SMILES	IC50
Cc1ccc(O)cc1-c1nc(C2CCOCC2)nc(C(N)=O)c1N [US20250304537, Compound 44]	3180 nM
NC(=O)c1nc(-c2ccnnc2)cc(-c2cccc3[nH]ncc23)c1N [US20250304537, Compound 69]	131 nM
Cc1ccc2[nH]ncc2c1-c1nc(-c2ccnnc2)cc(C(N)=O)c1N [US20250304537, Compound 120]	329 nM
Cc1ccc2[nH]ncc2c1-c1nc(-c2ccc3[nH]ncc3c2)nc(C(N)=O)c1N [US20250304537, Compound 130]	66 nM
Cc1ccc2[nH]ncc2c1-c1nc(-c2ccc(N3CCN(C)CC3)cc2)nc(C(N)=O)c1N [US20250304537, Compound 134]	142 nM
Cc1ccc2[nH]ncc2c1-c1cc(-c2ccnc(OCC(F)(F)F)n2)nc(C(N)=O)c1N [US20250304537, Compound 165]	586 nM
CCc1ccc2[nH]ncc2c1-c1nc(-c2cccnc2)nc(C(N)=O)c1N [US20250304537, Compound 222]	> 2000 nM
Cc1ccc2[nH]ncc2c1-c1cc(-c2cccc(-c3ccccn3)n2)nc(C(N)=O)c1N [US20250304537, Compound 236]	46 nM

Molecules with a lower IC50, results first:

IC50	SMILES
39 nM	Cc1ccc2[nH]ncc2c1-c1nc(-c2ccc(C#N)cc2)nc(C(N)=O)c1N [US20250304537, Compound 133]
37 nM	Cc1ccc2[nH]ncc2c1-c1nc(-c2cccc(N3CCN(C)CC3)c2)nc(C(N)=O)c1N [US20250304537, Compound 132]
27 nM	Cc1ccc(O)c(C)c1-c1nc(-c2ccnnc2)cc(C(N)=O)c1N [US20250304537, Compound 77]
27 nM	Cc1ccc2[nH]ncc2c1-c1nc(-c2cccnc2O)nc(C(N)=O)c1N [US20250304537, Compound 598]
25 nM	Cc1cc(-c2nc(C(N)=O)c(N)c(-c3c(C)ccc4[nH]ncc34)n2)ccn1 [US20250304537, Compound 136]
22 nM	COc1cc(-c2nc(C(N)=O)c(N)c(-c3c(C)ccc4[nH]ncc34)n2)ccn1 [US20250304537, Compound 135]
15 nM	Cc1ccc2[nH]ncc2c1-c1cc(-c2ccnc(N[C@H]3CCOC[C@@H]3O)n2)nc(C(N)=O)c1N [US20250304537, Compound 368]
10 nM	Cc1ccc2[nH]ncc2c1-c1cc(-c2ccnc(OCC3(C#N)CC3)n2)nc(C(N)=O)c1N [US20250304537, Compound 324]
7 nM	Cc1ccc2[nH]ncc2c1-c1cc(-c2ccnc(OCc3ccco3)n2)nc(C(N)=O)c1N [US20250304537, Compound 213]
7 nM	CC(=O)N1CCN(c2nccc(-c3cc(-c4c(C)ccc5[nH]ncc45)c(N)c(C(N)=O)n3)n2)CC1 [US20250304537, Compound 215]
4 nM	Cc1ccc2[nH]ncc2c1-c1cc(-c2ccnc(OCc3nccn3C)n2)nc(C(N)=O)c1N [US20250304537, Compound 301]
